Source: patent US20090042820A1, “Tubulin Binding Anti Cancer Agents And Prodrugs Thereof” (Threshold Pharmaceuticals, Inc., priority 2004, published 2009)
Like-named read-outs stand apart in the source and are kept apart here.

Key:
H460 xenograft = H460 xenograft mouse model; type: in vivo; settings: day 21; taxol alone 10 mg/kg daily; treatment began at 150 mm^3 tumor volume
Experimental: Female CB17/SCID mice (purchased from Taconic, Oxnard, Calif.), 7-8 weeks of age, were allowed to acclimatize for at least three days, and handled under pathogen-free conditions. Human non-small cell lung cancer cell line […] was obtained from the American Type Culture Collection. The cell lines were cultured in RPMI 1640 media supplemented with 10% fetal bovine serum. Cells were maintained in a 37° C. incubator with 5% CO2. The H460 cells were harvested from culture and inoculated at 1×10^6 cells/animal in the […] subcutaneous space. […] Taxol was administered approximately 2-3 hours before that of compound 30.
The body weight of each mouse was recorded twice per week (FIG. 1). […] One animal in the treatment group was found dead on day 18, and two were found dead on day 22 in the combination group.
FIG. 2 graphically illustrates the mean tumor volume for each treatment group. Growth of each xenograft was monitored by externally measuring tumors in two dimensions using a digital caliper twice per week. Tumor volume (V) was determined by the following equation: V=(L×W^2)/2, where L is the length and W is the width of a xenograft. Tumor volumes were measured twice weekly. On day 11, the Treated/Control (T/C) ratio was 65% and 52% in the treatment and combination groups, respectively. At the final measurement (day 22), the T/C ratio for the treatment and combination groups respectively were 43% and 19%.

MES-SA = test: Alamar Blue antiproliferation assay, MES-SA; type: cell-based; settings: 3 Day
H460 cells [1] = test: Alamar Blue antiproliferation assay, H460 cell line; type: cell-based, human
Experimental: (§1) To determine the effect of the compounds of the present invention on cell proliferation, the antiproliferative activity of these compounds was tested in a multi-well Alamar Blue based assay (at 2 h and 3 days). Cell growth in the presence and absence of the test compound as tabulated in Table 1 was compared, as measured by a fluorescence plate reader at excitation 550 nm and emission 590 nm (see Biosource International Inc., Tech Application Notes, Use of Alamar Blue in the measurement of Cell Viability and Toxicity, Determining IC50). H460 cells (ATCC HTB-177 ([…]), 4,000 cells/well/200 μl) and LNCap cells (ATCC CRL-1740, 6,000 cells/well/200 μl) were seeded in a 96 well plate in RPMI medium (Invitrogen Corporation, Carlsbad, Calif.). After 24 hours, these plates were divided into 3 groups—Control group, 2 h treatment group and 3 day treatment group.
(§2) In the 2 h treatment group, after 2 h the cells were rinsed to remove the test compound and incubated for 3 days, followed by staining with AlamarBlue. The cells in the 3-day treatment group were incubated for 3 days, followed by staining with AlamarBlue. In the Control group, AlamarBlue was added to the plate at (i) day 0 and (ii) day 3 and measured to establish the control reading. In all the groups, the capacity of the cells to proliferate was measured 6 hours after addition of AlamarBlue by a fluorescence plate reader at excitation 550 nm and emission 590 nm.

MES-SA/DX5 = test: Alamar Blue antiproliferation assay, MES-SA/DX5; type: cell-based; settings: MES-SA/DX5, 3 Day
HT29 = test: Alamar Blue antiproliferation assay, HT29; type: cell-based; settings: HT29, 3 Day
T47D = test: Alamar Blue antiproliferation assay, T47D; type: cell-based; settings: 3 Day
[2] = Metabolic stability in mouse liver microsomes; type: in vitro ADME; settings: 5 μM, 1 mg/mL protein, NADPH, 37° C.
Experimental: An in vitro assessment of metabolic stability of compounds was performed using commercially available mouse liver microsomes (MLM) containing cytochrome P450 enzymes (Cedra Corp, Austin, Tex.). A solutions (5 μM) of a compound and microsomes (1 mg/mL protein) was prepared. P450 enzymatic reactions were initiated by adding an NADPH solution. Enzymatic reactions were carried out in a thermostated shaking water bath kept at 37° C. Fifty μl of the reaction mixture was withdrawn immediately and 30 minutes after the addition of the NADPH solution and the proteins were precipitated with acetonitrile. The clear supernatant was analyzed by reversed phase LC-MS/MS (Applied Biosystems API-3000 with Hypersil-BDS C18 column and gradient elution), with internal standard area ratio quantification for the amount the compound remaining as shown in table 4.

cancer cell = test: Cancer cell antiproliferation assay (cell line not stated); type: cell-based; settings: summary statement; read-out: GI50 or IC50 in a cancer cell antiproliferation assay
Experimental: In one aspect, the present invention provides a compound of formula (I-VII) having a GI50, GI90, IC50, or IC50 of about 0.001 to about 1000 nM, about 0.01 to about 100 nm, about 0.1 to about 50 nM, and about 1 to about 10 nM in a cancer cell antiproliferation assay. In one embodiment, the present invention provides a compound of formula (I) having a GI50 or IC50 of about 0.01 to about 100 nm, about 0.1 to about 50 nm, and about 1 to about 10 nm in a cancer cell antiproliferation assay. In various embodiments, said antiproliferation assays employ cancer cell including but not limited to gastric, colon, breast, and non-small cell lung cancer. In various embodiments, the […] cancer cell used is MESSA or doxorubicin resistant MESSA/DX5 cell; the colon cancer cell is HT29 cell; the breast cancer cell is T47D cell; and the non-small cell lung cancer cell is H460 cell.
as §1, §2

Plasma stability = type: in vitro ADME; settings: mouse plasma, 5 μM, 37° C.
Experimental: For an assessment of plasma stability of compounds, commercially available mouse plasma (Bioreclamation, Hicksville, N.Y.) was added to a DMSO solution of a compound, to a concentration of 5 μM. The reaction mixture (50 μl) was withdrawn immediately and after 30 minutes at 37° C., proteins were precipitated with acetonitrile. The clear supernatant was analyzed by reversed phase LC-MS/MS and the amount the compound remaining quantified as shown in table 4.

H460 cells [3] = test: Cell cycle analysis; type: cell-based, human; settings: 24 h
Experimental: H460 cells (2×10^5 cells/ml/well) were seeded in a 24 well plate. The culture media were removed after 24 h, the cells were trypsinized and centrifuged. […] The cells were centrifuged and the supernatant was discarded. The cell cycle staining reagent (Guava Technologies, Hayward, Calif., USA, 200 μl) was added to each well. The cells were shielded from light and incubated at room temperature for 30 min.

tubulin = test: Tubulin polymerization inhibition (cell free tubulin fluorescence); type: biochemical; settings: compared to untreated tubulin, read-out: IC50 (μM), concentration that reduced tubulin fluorescence by 50%
Experimental: A sample of cell free tubulin polymerizes and the sample's fluorescence emission increases. Inhibition of tubulin polymerization by a tubulin binding compounds of the present invention was measured by the dose dependence of cell free tubulin fluorescence.

[4] = patients, reported in literature; cited from earlier work
[5] = Homo sapiens, NCI-H460, 2 h treatment, then 3 days incubation, read-out: GI50 (nM) 2 Hour
[6] = Homo sapiens, NCI-H460, 72 h, 3 day treatment, read-out: GI50 (nM) 3 Days

Row | SMILES | Metabolic stability (MLM, % remaining at 30 min) [2] [%] | GI50 (H460 cells [1]; [5]) [nM] | GI50 (H460 cells [1]; [6]) [nM] | IC50 (cancer cell) [nM] | GI50 (HT29; Homo sapiens, HT-29, 72 h) [nM] | GI50 (T47D; Homo sapiens, 72 h) [nM] | GI50 (MES-SA; Homo sapiens, 72 h) [nM] | GI50 (MES-SA/DX5; Homo sapiens, 72 h) [nM] | other results
1 | CC(=O)O[C@H]1C(=O)[C@@]2(C)[C@H]([C@H](OC(=O)c3ccccc3)[C@]3(O)C[C@H](OC(=O)[C@H](O)[C@@H](NC(=O)c4ccccc4)c4ccccc4)C(C)=C1C3(C)C)[C@]1(OC(C)=O)CO[C@@H]1C[C@@H]2O [taxol, paclitaxel, reference compound] |  |  |  |  |  |  |  |  | TIC, tumor volume (H460 xenograft): 56%
2 | COc1cc(C(=O)c2n[nH]c3c(C#Cc4ccccn4)c(OC)ccc23)cc(OC)c1OC [Compound 68] | 17 ± 4 |  |  |  |  |  |  |  | GI50 (MES-SA): 1.6 nM; GI50 (H460 cells [1]; 3 day treatment, read-out: GI50 (nM) 3 Days): 1.4 nM; GI50 (MES-SA/DX5): 1.9 nM; GI50 (HT29): 1.6 nM; GI50 (T47D): 1.6 nM
3 | COc1cc(C(=O)c2n[nH]c3c(/C=C/CO)c(OC)ccc23)cc(OC)c1OC [Compound 54] |  | 501 | 2 | 1 to 50 | 5 | 20 | 3.2 | 6.3 | 
4 | C#Cc1c(OC)ccc2c(C(=O)c3cc(OC)c(OC)c(OC)c3)n[nH]c12 [Compound 72] | 40 ± 9 |  | 1.3 | 1 to 50 | 1.6 | 6.3 | 1.9 | 3.9 | Plasma stability (% remaining at 30 min) (Plasma stability): 105%
5 | COc1cc(C(=O)c2n[nH]c3c(CCCO)c(OC)ccc23)cc(OC)c1OC [Compound 55] |  | > 10000 | 7.9 | 1 to 50 | 10 | 25 | 12 | 15.8 | 
6 | COc1ccc(/C=C\c2cc(OC)c(OC)c(OC)c2)cc1OP(=O)(O)O [Combretastatin A-4 phosphate] |  |  |  |  |  |  |  |  | maximum tolerated daily dose [4]: 60-68 mg/m^2
7 | COc1cc(C(=O)c2n[nH]c3c(C#CCOC(=O)OCc4ccc([N+](=O)[O-])o4)c(OC)ccc23)cc(OC)c1OC [Compound 57] | 21 ± 4 | 100 | 10 |  |  |  |  |  | 

Second part, led by results:

Row | Metabolic stability (MLM, % remaining at 30 min) [2] [%] | GI50 (H460 cells [1]; [5]) [nM] | GI50 (H460 cells [1]; [6]) [nM] | IC50 (cancer cell) [nM] | GI50 (HT29; Homo sapiens, HT-29, 72 h) [nM] | GI50 (T47D; Homo sapiens, 72 h) [nM] | SMILES | GI50 (MES-SA; Homo sapiens, 72 h) [nM] | GI50 (MES-SA/DX5; Homo sapiens, 72 h) [nM] | other results
8 | 28 ± 6 | > 10000 | 15.8 |  |  |  | COc1cc(C(=O)c2n[nH]c3c(C#N)c(OC)ccc23)cc(OC)c1OC [Compound 58] |  |  | 
9 | 88 ± 11 |  | 10 | 1 to 50 | 12.6 | 6.3 | COc1cc(C(=O)c2n[nH]c3c(C#CC(C)O)c(OC)ccc23)cc(OC)c1OC (centres unmarked) [Compound 66] | 15.8 | 10 | 
10 | 94 ± 4 | > 1000 | 25.1 |  |  |  | COc1cc(C(=O)c2n[nH]c3c(C(N)=O)c(OC)ccc23)cc(OC)c1OC [Compound 60] |  |  | 
11 |  |  | 15.8 | 1 to 50 | 12.6 | 200 | COc1cc(C(=O)c2n[nH]c3c(Br)c(OC)ccc23)cc(OC)c1OC [Compound 39] | 2.5 | 10 | % G2/M (H460 cells [3]; H460, 0.4 nM): 28%; % Go/G1 (H460 cells [3]; H460, 0.4 nM): 50%; % S (H460 cells [3]; H460, 0.4 nM): 15%; % G2/M (H460 cells [3]; H460, 1.2 nM): 31%; % Go/G1 (H460 cells [3]; H460, 1.2 nM): 47%; % S (H460 cells [3]; H460, 1.2 nM): 14%; % G2/M (H460 cells [3]; H460, 3.7 nM): 32%; % Go/G1 (H460 cells [3]; H460, 3.7 nM): 45%; % S (H460 cells [3]; H460, 3.7 nM): 12%; % G2/M (H460 cells [3]; H460, 11.1 nM): 29%; % Go/G1 (H460 cells [3]; H460, 11.1 nM): 47%; % S (H460 cells [3]; H460, 11.1 nM): 14%; % G2/M (H460 cells [3]; H460, 33.3 nM): 60%; % Go/G1 (H460 cells [3]; H460, 33.3 nM): 18%; % S (H460 cells [3]; H460, 33.3 nM): 13%; IC50 (tubulin): 7.9 µM
